Test results reported in patent publication US20230338363A1, “COMBINATION CHEMO-IMMUNOTHERAPY FOR PANCREATIC CANCER USING THE IMMUNOGENIC EFFECTS OF AN IRINOTECAN SILICASOME NANOCARRIER PLUS ANTI-PD-1” (The Regents of the University of California, priority 2020, published 2023).
Structures can show the parent of a compound that is named as a salt.

Key:
Assay type in all cases: cell-based, mouse
[1] = tested on: KPC cells; assay: CRT expression (flow cytometry), HMGB1 release (ELISA) and ATP release
Procedure: 7.5×10^4 KPC cells were seeded into 24-well plates. After cell attachment, KPC cells were treated with IRIN (300 µM), OX (500 µM), DOX (20 µM or PTX (12 µM for 24 h. The cell culture media were collected in 1.5 mL tube and spun down (2,000 rpm for 5 min) to collect the supernatants for HMGB1 detection by an ELISA kit (Catalog# ST51011, IBL International GmbH). Surface CRT expression was measured by flow cytometry in the same experiment, as previously described. ^[27] Briefly, the loosely attached cells were combined with trypsin-treated adhered cells. The cells were washed in cold PBS and then stained with a primary anti-CRT antibody (Abcam, ab2907, 1: 140) in 200 µL BD staining buffer for 0.5 h on ice. The cells were washed in cold PBS and stained with an Alexa Fluor® 680-conjugated secondary antibody (LifeScience Technologies #A21244) for 30 min on ice. After washing in cold PBS, the cells were assessed in a LSRII flow cytometer (BD Biosciences).

[2] = tested on: KPC cells; assay: Lysosomal alkalization, LysoTracker Red DND 99 confocal microscopy
Procedure: Approximately 1.5×10^4 KPC cells were seeded in µ-Slide 8 well (ibidi, 80826). To reveal the intracellular distribution of IRIN, attached KPC cells were treated with IRIN (300 µM) for 24 h. Cell membranes were stained using an Alexa Fluor® 594 conjugated WGA dye (Invitrogen™, W11262) at 2 µg/mL for 10 minutes. After washing, the cells were visualized using a Leica SP8-MD confocal microscope under the 100× objective lens. The excitation and emission wavelengths for IRIN were 405 nm and 440~490 nm, respectively^[51]
IRIN-treated KPC cells were washed and replenished with fresh media containing 100 nM DND-99 dye and 5 µg/mL Hoechst 33342 for nuclear staining. The cells were incubated at 37° C. for 0.5 h, followed by washing with phenol red free media. The cells were then visualized using a Leica SP8-MD confocal microscope under the 100× objective lens.
(§1) The of the IRIN silicasome on lysosomal alkalization was performed at drug concentrations of 75 µM and 300 µM in KPC cells. Empty silicasomes (in which a 500 µg/mL particle dose is representative of an encapsulated IRIN dose of 300 µM) was included as control. The assessment of LC3B, p62 and PD-L1 immunoblotting and IF staining were performed in KPC cells during treatment with the IRIN silicasome or empty silicasomes, as described for the free drug.

[3] = tested on: KPC cells; assay: Autophagy (LC3B, p62) and PD-L1 expression by IF staining and immunoblotting
Procedure: KPC cells were seeded in the µ-Slide 8 well. After cell attachment, the cells were treated by IRIN at 300 µM for 24 h. Control treatments included exposure to PBS, chloroquine (32 µM), rapamycin (100 nM) and IFN-γ (10 ng/ml). Before IF staining, the cells were washed with PBS and fixed with 4% paraformaldehyde at RT for 15 minutes. Cells were treated in 1% BSA (blocking reagent) plus 0.2% triton-X100 in PBS for 30 minutes. Subsequently, the cells were incubated with primary antibody that recognizes LC3B (Cell Signaling #2775, 1:200) or p62/SQSTM1 (Cell Signaling #23214, 1:800) in 1% BSA containing PBS solution at 4° C. overnight. The sample was washed twice in PBS and further stained using an Alexa Fluor® 488 conjugated goat anti-rabbit secondary antibody (Thermo Fisher, A-11008, 1:1000) and 5 µg/mL Hoechst 33342 dye for 1 h. Cell surface staining for PD-L1 assessment was carried out in fixed (4% paraformaldehyde) cells, using a staining process similar to the above protocol. Primary PD-L1 antibody (Abcam, ab213480, 1: 500) and Alexa Fluor® 594 conjugated goat anti-rabbit secondary antibody (Thermo Fisher, A-11012, 1:1000) were used. The cells were visualized using a Leica SP8-MD confocal microscope under the 100x objective lens.
To confirm the confocal staining results for LC3B, p62 and PD-L1, western blotting experiments were performed in KPC cells exposed to IRIN (300 µM) or OX (500 µM) for 24 hr. Another experiment also looked at the dose-dependent effect of IRIN at concentrations of 75, 150, 300 and 600 µM for 24 h. Briefly, ~2×10^5 KPC cells per well were seeded in 6 well-plates. After drug exposure, KPC cells were harvested and treated with cold RIPA lysis buffer (Cell Signaling # 9806S), supplemented with a cocktail of protease and phosphatase inhibitors (Cell Signaling #5872) and incubated on ice for 30 mins. After centrifugation of the lysates at 12,000 rpm for 10 min, protein concentration was quantified by a Bradford assay (Biorad). Equal amounts of protein in the supernatants were loaded onto a 10-20% Tris-glycine SDS-PAGE gel (Invitrogen, Grand Island, NY). The proteins were subsequently transferred to a PVDF membrane. The membrane was blocked with 5% non-fat dry milk/TBST, before incubation with primary and HRP-conjugated secondary antibodies. The primary antibodies included: LC3B (Cell Signaling #2775), p62/SQSTM1 (Cell Signaling #5114), NF-κB p65 (Cell Signaling #8242), Phospho-NF-xB p65 (Cell Signaling #3033) and PD-L1 (Abcam, ab213480). The blots were developed by soaking in ECL substrate (Thermo Fisher Scientific). Densitometric analysis of each protein band on the film was quantified by ImageJ software and normalized to the intensity of a corresponding housekeeping protein.
as §1

## CCc1c2c(nc3ccc(OC(=O)N4CCC(N5CCCCC5)CC4)cc13)-c1cc3c(c(=O)n1C2)COC(=O)[C@]3(O)CC [IRIN, Irinotecan hydrochloride trihydrate]
[1]
  ATP release: could not demonstrate an increase in ATP release
[1]; IRIN 300 µM, 24 h
  CRT expression and HMGB1 release: strong inducer of both responses
[2]; 300 µM free IRIN
  time at which a major DND 99 signal drop is observed: 1 h
[2]; 24 hours
  IRIN dose at which a major DND 99 signal drop is discerned: 20 µM
[2]; IRIN 300 µM, 24 h, untreated cells 57.9 ± 1.3, Image J
  DND 99 relative staining intensity: 13.9 ± 0.9
[3]; 24 h, IRIN 300 µM, CQ 32 µM, RAP 100 nM
  IF staining of LC3B and p62/SQSTM1 complexes: contemporaneous appearance of fluorescent LC3B puncta as well as p62 protein complexes
[3]; IRIN 300 µM or OX 500 µM, 24 h
  PD-L1 expression: robust cell surface expression of PD-L1
  autophagy flux (Western blotting of LC3 and p62): inhibited autophagy flux
[3]; IRIN 300 µM, 24 hrs
  phosphorylation of p65 NF-κB subunit: induce the phosphorylation of the p65 (p-p65) subunit of NF-κB
[3]; IRIN 75-600 µM, 24 h
  ratio of LC3-II vs. LC3-I expression (immunoblotting): dose-dependent increase
